From patent US20250179073A1, “TRICYCLIC HETEROCYCLE COMPOUNDS AS IAP ANTAGONISTS” (Ascentage Pharma (Suzhou) Co., Ltd., priority 2022, published 2025) come the findings set out here.

The subject of the assay is MDA-MB-231 cells. As to the kind of experiment: Cell proliferation assay (CellTiter-Glo), MDA-MB-231. The following applies: 72 h treatment, Celltiter-Glo luminescence. The format is cell-based. The method, then: Example 238: Cell Proliferation Assay
MDA-MB-231 and EVSA-T cells (10000 cells/well) were plated onto 96-well plates (Corning, Cat #3917) in 95 μL of medium (RPMI-1640 containing 10% FBS and MEM containing 10% FBS, respectively). Compounds with various concentrations ([…]) were added to the wells. After treatment for 72 h, 30 μL of Celltiter-Glo reagent (Promega, Cat #G7573) was added and incubated at room temperature for 15 min, then the luminescent signal was determined using a microplate reader (Biotek, SynergyH1). The inhibitor dose-response curves were analyzed using normalized IC50 regression curve fitting with control based normalization.

For `C[C@@H]1CN(CC(=O)N2CC(C)(C)c3c2cc(Cc2ccc(F)cc2)c2nc(C(F)(F)F)cn32)[C@@H](CN2CCN(CC#N)C[C@H]2C)CN1` [Compound 175, 2-((R)-4-(((2R,5R)-1-(2-(4-(4-fluorobenzyl)-8,8-dimethyl-2-(trifluoromethyl)-7,8-dihydro-6H-imidazo[1,2-a]pyrrolo[2,3-e]pyridin-6-yl)-2-oxoethyl)-5-methylpiperazin-2-yl)methyl)-3-methylpiperazin-1-yl)acetonitrile], the IC50 (as a rule, the midpoint of a concentration-inhibition curve) (Homo sapiens, MDA-MB-231, 72 h) is 120 nM.

Turning to `C[C@@H]1CN(CC(=O)N2CC(C)(C)c3c2cc(S(=O)(=O)c2ccc(F)cc2)c2ncnn32)[C@@H](CN2CCOC[C@H]2C)CN1` [Compound 176, 1-(4-((4-fluorophenyl)sulfonyl)-8,8-dimethyl-7,8-dihydro-6H-pyrrolo[2,3-e][1,2,4]triazolo[1,5-a]pyridin-6-yl)-2-((2R,5R)-5-methyl-2-(((R)-3-methylmorpholino)methyl)piperazin-1-yl)ethan-1-one], the IC50 (Homo sapiens, MDA-MB-231, 72 h) amounted to 190 nM.

`C[C@@H]1CN(CC(=O)N2CC(C)(C)c3c2cc(Cc2ccc(F)cc2)c2nc(C(F)(F)F)cn32)[C@@H](CN2CCN(S(C)(=O)=O)C[C@H]2C)CN1` [Compound 178, 1-(4-(4-fluorobenzyl)-8,8-dimethyl-2-(trifluoromethyl)-7,8-dihydro-6H-imidazo[1,2-a]pyrrolo[2,3-e]pyridin-6-yl)-2-((2R,5R)-5-methyl-2-(((R)-2-methyl-4-(methylsulfonyl)piperazin-1-yl)methyl)piperazin-1-yl)ethan-1-one]: the IC50 (Homo sapiens, MDA-MB-231, 72 h) was determined as 490 nM.

Regarding `C[C@@H]1CN(CC(=O)N2CC3(CCOCC3)c3c2cc(Cc2ccc(F)cc2)c2nc(C(F)(F)F)cn32)[C@@H](CN2CCOC[C@H]2C)CN1` [Compound 183, 1-(4-(4-fluorobenzyl)-2-(trifluoromethyl)-2′,3′,5′,6′-tetrahydrospiro[imidazo[1,2-a]pyrrolo[2,3-e]pyridine-8,4′-pyran]-6(7H)-yl)-2-((2R,5R)-5-methyl-2-(((R)-3-methylmorpholino)methyl)piperazin-1-yl)ethan-1-one], the IC50 (Homo sapiens, MDA-MB-231, 72 h) turned out to be 810 nM. In the case of `Cc1nccn1C[C@H]1CN[C@H](C)CN1CC(=O)N1CC(C)(C)c2c1cc(Cc1ccc(F)cc1)c1nc(C(F)(F)F)cn21` [Compound 186, 1-(4-(4-fluorobenzyl)-8,8-dimethyl-2-(trifluoromethyl)-7,8-dihydro-6H-imidazo[1,2-a]pyrrolo[2,3-e]pyridin-6-yl)-2-((2R,5R)-5-methyl-2-((2-methyl-1H-imidazol-1-yl)methyl)piperazin-1-yl)ethan-1-one], the 50% inhibitory concentration (IC50) (Homo sapiens, MDA-MB-231, 72 h) is 230 nM. Turning to `C[C@@H]1CN(CC(=O)N2CC(C)(C)c3c2cc(Cc2ccc(F)cc2)c2nc(N4C[C@@H](O)[C@H](O)C4)nn32)[C@@H](CN2CCOC[C@H]2C)CN1` [Compound 188, 1-(2-((3R,4R)-3,4-dihydroxypyrrolidin-1-yl)-4-(4-fluorobenzyl)-8,8-dimethyl-7,8-dihydro-6H-pyrrolo[2,3-e][1,2,4]triazolo[1,5-a]pyridin-6-yl)-2-((2R,5R)-5-methyl-2-(((R)-3-methylmorpholino)methyl)piperazin-1-yl)ethan-1-one], the IC50 is 80 nM.

Turning to `C[C@@H]1CN(CC(=O)N2CC(C)(C)c3c2cc(Cc2ccc(F)cc2)c2ncnn32)[C@@H](CN2CCNC(=O)[C@H]2C)CN1` [Compound 191, (R)-4-(((2R,5R)-1-(2-(4-(4-fluorobenzyl)-8,8-dimethyl-7,8-dihydro-6H-pyrrolo[2,3-e][1,2,4]triazolo[1,5-a]pyridin-6-yl)-2-oxoethyl)-5-methylpiperazin-2-yl)methyl)-3-methylpiperazin-2-one], the IC50 (Homo sapiens, MDA-MB-231, 72 h) stood at 80 nM. On to `C[C@@H]1CN(CC(=O)N2CC(C)(C)c3c2cc(N2CCN(C)c4cc(F)ccc42)c2ncnn32)[C@@H](CN2CCOC[C@H]2C)CN1` [Compound 194, 1-(4-(6-fluoro-4-methyl-3,4-dihydroquinoxalin-1(2H)-yl)-8,8-dimethyl-7,8-dihydro-6H-pyrrolo[2,3-e][1,2,4]triazolo[1,5-a]pyridin-6-yl)-2-((2R,5R)-5-methyl-2-(((R)-3-methylmorpholino)methyl)piperazin-1-yl)ethan-1-one], for which, under “Homo sapiens, MDA-MB-231, 72 h”, the IC50 is 680 nM. In the case of `C[C@@H]1CN(CC(=O)N2CC(C)(C)c3c2cc(Cc2ccc(F)cc2)c2nc(N4CCNC(=O)C4)nn32)[C@@H](CN2CCOC[C@H]2C)CN1` [Compound 195, 4-(4-(4-fluorobenzyl)-8,8-dimethyl-6-(2-((2R,5R)-5-methyl-2-(((R)-3-methylmorpholino)methyl)piperazin-1-yl)acetyl)-7,8-dihydro-6H-pyrrolo[2,3-e][1,2,4]triazolo[1,5-a]pyridin-2-yl)piperazin-2-one], the IC50 (Homo sapiens, MDA-MB-231, 72 h) turned out to be 180 nM. On to `C[C@@H]1CN(CC(=O)N2CC(C)(C)c3c2cc(Cc2ccc(F)cc2)c2nc(C(=O)O)nn32)[C@@H](CN2CCOC[C@H]2C)CN1` [Compound 197, 4-(4-fluorobenzyl)-8,8-dimethyl-6-(2-((2R,5R)-5-methyl-2-(((R)-3-methylmorpholino)methyl)piperazin-1-yl)acetyl)-7,8-dihydro-6H-pyrrolo[2,3-e][1,2,4]triazolo[1,5-a]pyridine-2-carboxylic acid], for which, for the setting “Homo sapiens, MDA-MB-231, 72 h”, the IC50 is over 10000 nM. Still for that read-out and setting: as for `C[C@@H]1CN(CC(=O)N2CC(C)(C)c3c2cc(N2CCNc4cc(F)ccc42)c2ncnn32)[C@@H](CN2CCOC[C@H]2C)CN1` [Compound 198, 1-(4-(6-fluoro-3,4-dihydroquinoxalin-1(2H)-yl)-8,8-dimethyl-7,8-dihydro-6H-pyrrolo[2,3-e][1,2,4]triazolo[1,5-a]pyridin-6-yl)-2-((2R,5R)-5-methyl-2-(((R)-3-methylmorpholino)methyl)piperazin-1-yl)ethan-1-one], the figure is 1000 nM; as for `C[C@@H]1CN(CC(=O)N2CC(C)(C)c3c2cc(Cc2ccc(F)cc2)c2nc(S(C)(=O)=O)nn32)[C@@H](CN2CCOC[C@H]2C)CN1` [Compound 200, 1-(4-(4-fluorobenzyl)-8,8-dimethyl-2-(methylsulfonyl)-7,8-dihydro-6H-pyrrolo[2,3-e][1,2,4]triazolo[1,5-a]pyridin-6-yl)-2-((2R,5R)-5-methyl-2-(((R)-3-methylmorpholino)methyl)piperazin-1-yl)ethan-1-one], 70 nM. On the same count and under the same terms, as for `C[C@@H]1CN(CC(=O)N2CC(C)(C)c3c2cc(Cc2ccc(F)cc2)c2ncnn32)[C@@H](CN2CCN(C)C(=O)[C@H]2C)CN1` [Compound 205, (R)-4-(((2R,5R)-1-(2-(4-(4-fluorobenzyl)-8,8-dimethyl-7,8-dihydro-6H-pyrrolo[2,3-e][1,2,4]triazolo[1,5-a]pyridin-6-yl)-2-oxoethyl)-5-methylpiperazin-2-yl)methyl)-1,3-dimethylpiperazin-2-one], the figure is 7080 nM. As for `C[C@@H]1CN(CC(=O)N2CC(C)(C)c3c2cc(Cc2ccc(F)cc2)c2nc(N4CCOCC4=O)nn32)[C@@H](CN2CCOC[C@H]2C)CN1` [Compound 208, 4-(4-(4-fluorobenzyl)-8,8-dimethyl-6-(2-((2R,5R)-5-methyl-2-(((R)-3-methylmorpholino)methyl)piperazin-1-yl)acetyl)-7,8-dihydro-6H-pyrrolo[2,3-e][1,2,4]triazolo[1,5-a]pyridin-2-yl)morpholin-3-one], for the setting “Homo sapiens, MDA-MB-231, 72 h”, the IC50 was determined as 210 nM. With `C[C@@H]1CN(CC(=O)N2CC(C)(C)c3c2cc(Cc2ccc(F)cc2)c2nc(P(C)(C)=O)nn32)[C@@H](CN2CCOC[C@H]2C)CN1` [Compound 209, 1-(2-(dimethylphosphoryl)-4-(4-fluorobenzyl)-8,8-dimethyl-7,8-dihydro-6H-pyrrolo[2,3-e][1,2,4]triazolo[1,5-a]pyridin-6-yl)-2-((2R,5R)-5-methyl-2-(((R)-3-methylmorpholino)methyl)piperazin-1-yl)ethan-1-one], the IC50 (Homo sapiens, MDA-MB-231, 72 h) turned out to be 2160 nM. Still for that read-out and setting: as for `C[C@@H]1CN(CC(=O)N2CC(C)(C)c3c2cc(Sc2ccc(F)cn2)c2ncnn32)[C@@H](CN2CCOC[C@H]2C)CN1` [Compound 211, 1-(4-((5-fluoropyridin-2-yl)thio)-8,8-dimethyl-7,8-dihydro-6H-pyrrolo[2,3-e][1,2,4]triazolo[1,5-a]pyridin-6-yl)-2-((2R,5R)-5-methyl-2-(((R)-3-methylmorpholino)methyl)piperazin-1-yl)ethan-1-one], the figure is 150 nM; as for `C[C@@H]1CN(CC(=O)N2CC(C)(C)c3c2cc(Cc2ccc(F)cc2)c2ncnn32)[C@@H](CN2CCN(C(N)=O)C[C@H]2C)CN1` [Compound 215, (R)-4-(((2R,5R)-1-(2-(4-(4-fluorobenzyl)-8,8-dimethyl-7,8-dihydro-6H-pyrrolo[2,3-e][1,2,4]triazolo[1,5-a]pyridin-6-yl)-2-oxoethyl)-5-methylpiperazin-2-yl)methyl)-3-methylpiperazine-1-carboxamide], 430 nM. For `C[C@@H]1CN(CC(=O)N2CC(C)(C)c3c2cc(Sc2ccc(F)cc2N)c2ncnn32)[C@@H](CN2CCOC[C@H]2C)CN1` [Compound 216, 1-(4-((2-amino-4-fluorophenyl)thio)-8,8-dimethyl-7,8-dihydro-6H-pyrrolo[2,3-e][1,2,4]triazolo[1,5-a]pyridin-6-yl)-2-((2R,5R)-5-methyl-2-(((R)-3-methylmorpholino)methyl)piperazin-1-yl)ethan-1-one], where the note is “Homo sapiens, MDA-MB-231, 72 h”, the IC50 stood at 280 nM.

Take `C[C@@H]1CN(CC(=O)N2CC(C)(C)c3c2cc(Cc2ccc(F)cc2)c2nn(CC(N)=O)c(=O)n32)[C@@H](CN2CCOC[C@H]2C)CN1` [Compound 217, 2-(4-(4-fluorobenzyl)-8,8-dimethyl-6-(2-((2R,5R)-5-methyl-2-(((R)-3-methylmorpholino)methyl)piperazin-1-yl)acetyl)-1-oxo-7,8-dihydro-1H-pyrrolo[2,3-e][1,2,4]triazolo[4,3-a]pyridin-2(6H)-yl)acetamide]: where the note is “Homo sapiens, MDA-MB-231, 72 h”, the IC50 is 350 nM.
